Measurements reported in patent publication US20230200424A1, “COMPOSITIONS COMPRISING CYS-PEPTIDES” (Evonik Operations GmbH, priority 2020, published 2023).
Entries after “also recorded” stand apart in the source; their conditions may differ. Like-named read-outs stand apart in the source and are kept apart here. Where a SMILES comes first, the peptide text is derived from it. Bridges are numbered along the chain shown (N, C = ends). Roman numbers before positions name the chains, in order.

What was measured:
[1] = Stabilization of 25 mM and 50 mM cysteine solutions against precipitation by Cys-dipeptides under oxidizing conditions (H2O2), turbidity at 600 nm; type: physicochemical; settings: H2O2 added, after 4.5 hours
Method: (§1) Turbidity caused by precipitation was measured photometrically at 600 nm in a microtiter plate-based assay. Liquid volume per well was 200 μl and measurements were conducted over 24 hours at 37° C. in a microplate reader (Tecan). The plates were not covered with a lid.
(§2) An experiment as described in example 1 was conducted in a microtiter plate. After two hours of incubation at 37° C., 14 μl of a 5 weight % H2O2 solution were added to each well to accelerate oxidation and evaluate stabilization under fully oxidized conditions. […] Turbidity measurements in the microplate reader were continued subsequently. Results are shown in Fehler! Verweisquelle konnte nicht gefunden werden.
To evaluate if the above described stabilization is also possible by addition of other Cys-dipeptides, experiments as described in example 4 were conducted with the exception that reduced cysteine concentrations of 50 mM and 25 mM were used and that the concentrations of added Cys-dipeptides were 0 (=control), 5, 10, 25 and 50 mM. The effect of (Asp-Cys)2, (Cys-Asp)2, (Lys-Cys)2, (Cys-Lys)2, (Ala-Cys)2 and (Pro-Cys)2 was evaluated. All Cys-peptides were able to prevent precipitation from the cysteine solutions after addition of H2O2 Differences in stabilization efficiency were observed between the various Cys-Peptides at cysteine concentrations of 50 mM. The Cys-dipeptides containing lysine residues were the most efficient stabilizers and a molar Cys-peptide to cysteine ratio between 1:2 and 1:5 provided sufficient stability.

[2] = Precipitation from a 100 mM cysteine solution with added (Lys-Cys)2, turbidity at 600 nm in microtiter plate; type: physicochemical; settings: 24 hours
Method: Solutions of substances and dilutions thereof were prepared in 100 mM phosphate buffer, pH=7 in all experiments in all examples. Precipitation could be avoided in a 100 mM solution of cysteine in a 100 mM phosphate buffer at pH=7 by the addition of suitable concentrations of (Lys-Cys)2.
as §1
When 100 mM solutions of cysteine were prepared with 0, 100, 200 or 400 mM (Lys-Cys)2×2 HCl at pH=7, a surprising result was obtained. Precipitation could be seen and measured in the absence of added peptide. […] The precipitates could be observed visually and measured via turbidimetry (see FIG. 1).

[3] = Stabilization of a 100 mM cysteine solution against precipitation by (Lys-Cys)2 under oxidizing conditions (H2O2), turbidity; type: physicochemical
Method: as §1, §2
The mixtures were incubated in a microplate for 2 hours at 37° C. and turbidity was measured photometrically. H2O2 was subsequently added to accelerate oxidation and evaluate stability against precipitation under fully oxidized conditions. Turbidity measurement was continued directly after H2O2 addition. With cysteine alone, the solution turned directly and visibly turbid, when H2O2 was added. With increasing amounts of added (Lys-Cys)2, the amount of precipitate measured via turbidity was reduced.

[4] = Solubility of (Ala-Cys)2 and its solubilization by addition of cysteine, turbidity at 600 nm; type: physicochemical
Method: Turbid suspensions of 50 mM (Ala-Cys)2 in phosphate buffer at pH=7 were prepared and increasing amounts of cysteine were added. The mixtures were incubated at 37° C. in a microtiter plate (liquid volume per well was 200 μl) and turbidity at 600 nm was measured after 30 minutes. At concentrations of 20 mM of cysteine and higher, (Ala-Cys)2 was fully solubilized and no further reduction of turbidity was measured. Solutions were visually transparent (see FIG. 2).

[5] = pH range between 3 and 9; cited from earlier work
[6] = Stabilization of 50 mM cysteine solution against precipitation by reduced and oxidized Cys-dipeptides under oxidizing conditions (H2O2), turbidity at 600 nm; type: physicochemical; settings: H2O2 added; for Turbidity at 600 nm: after 4.5 hours
Method: as §1, §2
To evaluate if the above described stabilization is also possible by addition of reduced Cys-dipeptides (=free thiol), the same experimental setup as described in example 4 was chosen. In this case, various concentrations of the reduced dipeptide Cys-Gly and of the oxidized dipeptide (Cys-Gly)2 were added to a 50 mM cysteine solution. Both Cys-peptides were able to prevent precipitation from the cysteine solutions after addition of H2O2.

[7] = 25 mM cysteine solution, Cys-peptide 5 mM
[8] = 25 mM cysteine solution, Cys-peptide 10 mM
[9] = 25 mM cysteine solution, Cys-peptide 25 mM
[10] = 25 mM cysteine solution, Cys-peptide 50 mM
[11] = 50 mM cysteine solution, Cys-peptide 5 mM
[12] = 50 mM cysteine solution, Cys-peptide 10 mM
[13] = 50 mM cysteine solution, Cys-peptide 25 mM
[14] = 50 mM cysteine solution, Cys-peptide 50 mM

Compound	Turbidity at 600 nm [1, 7] [AU]	Turbidity at 600 nm [1, 8] [AU]	Turbidity at 600 nm [1, 9] [AU]	Turbidity at 600 nm [1, 10] [AU]	Turbidity at 600 nm [1, 11] [AU]	Turbidity at 600 nm [1, 12] [AU]	Turbidity at 600 nm [1, 13] [AU]	Turbidity at 600 nm [1, 14] [AU]	also measured
(Asp-Cys)2	0.038	0.039	0.038	0.040	1.453	1.301	0.039	0.042	–
(Lys-Cys)2	0.039	0.041	0.042	0.047	0.946	0.556	0.045	0.047	precipitation (visual, turbidimetry) ([2]; 100 mM cysteine with 100 mM (Lys-Cys)2, pH=7, 37° C.): accelerated precipitation; precipitation (visual, turbidimetry) ([2]; 100 mM cysteine with 200 mM (Lys-Cys)2, pH=7, 37° C.): effectively prevented precipitation; precipitation (visual, turbidimetry) ([2]; 100 mM cysteine with 400 mM (Lys-Cys)2, pH=7, 37° C.): effectively prevented precipitation; precipitate after H2O2 addition ([3]; 100 mM cysteine with 400 mM (Lys-Cys)2): no precipitate was observed; also recorded: remained completely clear; turbidity directly after addition of H2O2 ([3]; 100 mM cysteine with (Lys-Cys)2, 2 hours at 37° C., then H2O2): no immediate increase in turbidity was observed; turbidity increase after H2O2 addition ([3]; 100 mM cysteine, increasing concentrations of (Lys-Cys)2): strongly reduced
C[C@H](N)C(=O)N[C@@H](CSSC[C@H](NC(=O)[C@H](C)N)C(=O)O)C(=O)O [(Ala-Cys)2] (I: H-Ala-Cys-OH / II: H-Ala-Cys-OH; disulfide I:2-II:2; N-terminus and C-terminus assumed)	–	–	–	–	–	–	–	–	solubility ([4]; 50 mM (Ala-Cys)2 suspension, phosphate buffer pH=7, 37° C., turbidity at 600 nm after 30 minutes, read-out: concentration of cysteine at which 50 mM (Ala-Cys)2 was fully solubilized): ≥ 20 mM; solubility ([4]; pH=7 and 37° C., read-out: maximum solubility): < 50 mM
N[C@@H](CSSC[C@H](N)C(=O)O)C(=O)O [cystine]	–	–	–	–	–	–	–	–	solubility [5]: < 1 mM
Cys-Gly	–	–	–	–	–	–	–	–	Turbidity at 600 nm ([6]; Cys-peptide 5 mM): 0.58 AU; Turbidity at 600 nm ([6]; Cys-peptide 10 mM): 0.37 AU; Turbidity at 600 nm ([6]; Cys-peptide 25 mM): 0.26 AU; Turbidity at 600 nm ([6]; Cys-peptide 50 mM): 0.04 AU; peptide concentration at which precipitation was completely suppressed [6]: 50 mM
(Cys-Gly)2	–	–	–	–	–	–	–	–	Turbidity at 600 nm ([6]; Cys-peptide 5 mM): 1.07 AU; Turbidity at 600 nm ([6]; Cys-peptide 10 mM): 0.07 AU; Turbidity at 600 nm ([6]; Cys-peptide 25 mM): 0.04 AU; Turbidity at 600 nm ([6]; Cys-peptide 50 mM): 0.04 AU; peptide concentration at which precipitation was completely suppressed [6]: 25 mM
(Cys-Lys)2	0.044	0.050	0.068	0.084	0.390	0.092	0.067	0.077	–
(Pro-Cys)2	0.078	0.039	0.040	0.042	1.539	1.379	0.762	0.118	–
(Cys-Asp)2	0.081	0.037	0.038	0.040	1.702	1.523	0.279	0.039	–
